Test results: US20110118304A1, “METHOD FOR TREATING OVER-EATING DISORDERS” (NeuroSearch A/S, priority 2007, published 2011)

Test system: Diet-Induced Obese Rats
Assay: Effect of tesofensine on food-intake in diet-induced obese rats
Assay type: in vivo, male Sprague-Dawley rats
Details: single subcutaneous injection of 1,5 mg/kg at lights out; diet-induced obese rats on high-fat diet; versus vehicle (saline); FIG. 1
Protocol: These rats were from 3-5 weeks of age only given access to a high-fat diet (#12266B; 31.8% kcal from fat, energy density […], Research Diets, New Jersey). After 17 weeks on high-fat diet, animals were stratified according to body weight. Tesofensine was injected in different doses to male Sprague-Dawley rats. Vehicle (saline), or tesofensine at different doses (from 0,5 mg/kg to 2,0 mg/kg) was administered as a single subcutaneous injection at lights out. The level of food-intake was continuously determined over the next 18 hours in an automated food-delivering system.
In FIG. 1, the level of food-intake over night is illustrated of two groups of animals; receiving either a single dose of 1,5 mg/kg tesofensine (triangles) or vehicle (squares).
In FIG. 2, a relation between increasing doses of tesofensine and the accumulated food-intake over a 18 h observation is shown.

CCOC[C@@H]1[C@@H](c2ccc(Cl)c(Cl)c2)C[C@@H]2CC[C@H]1N2C [tesofensine, (1R,2R,3S,5S)-3-(3,4-dichlorophenyl)-2-(ethoxymethyl)-8-methyl-8-azabicyclo[3.2.1]octane]
level of food-intake over night: inhibits food intake over night
